The test deals with T1, ABCG2 (Rattus norvegicus, UniProt Q80W57).
T1 sequence (Q80W57 1-657): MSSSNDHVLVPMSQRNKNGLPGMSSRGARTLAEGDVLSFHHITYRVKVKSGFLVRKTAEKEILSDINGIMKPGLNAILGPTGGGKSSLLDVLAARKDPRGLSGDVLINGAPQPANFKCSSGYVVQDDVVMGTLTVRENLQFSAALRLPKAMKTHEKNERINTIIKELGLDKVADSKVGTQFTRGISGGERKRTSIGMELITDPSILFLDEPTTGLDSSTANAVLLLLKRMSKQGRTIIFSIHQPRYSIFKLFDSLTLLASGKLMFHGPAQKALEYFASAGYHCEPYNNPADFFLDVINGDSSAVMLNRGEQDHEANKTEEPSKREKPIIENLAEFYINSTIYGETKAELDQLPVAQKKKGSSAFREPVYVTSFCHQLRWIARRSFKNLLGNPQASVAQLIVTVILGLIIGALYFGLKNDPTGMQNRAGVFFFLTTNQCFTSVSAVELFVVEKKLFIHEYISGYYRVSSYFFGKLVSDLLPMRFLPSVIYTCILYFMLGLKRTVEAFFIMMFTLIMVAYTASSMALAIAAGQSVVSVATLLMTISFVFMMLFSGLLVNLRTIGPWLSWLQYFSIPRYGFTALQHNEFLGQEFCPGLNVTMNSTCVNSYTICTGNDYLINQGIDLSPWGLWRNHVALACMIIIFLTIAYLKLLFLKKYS

This note sets out measurements from paper PMC3148428 (2011).

Structures are written as SMILES. pIC50: −log10 of the molar value.

The term pIC50 denotes −log10 of the IC50, conventionally taken in molar units. Low values mean a high IC50, high ones a low IC50. With `Cc1cn(-c2cc(NC(=O)c3ccc(C)c(Nc4nccc(-c5cccnc5)n4)c3)cc(C(F)(F)F)c2)cn1` [Tasigna], the pIC50 was 7.03.
